For series [1], the system named is HCV type 1b replicon in Huh-7 luc/neo (Huh-Luc) cells. The experiment in a line: Replicon assay: inhibition of HCV RNA replication in Huh-Luc cells (luciferase). Conditions: Hepatitis C virus, Huh-7, 72 h, luciferase activity, incubation of three days. It is filed as cell-based. How it is done: The in vitro antiviral activity against HCV of the compounds of formula (I) was tested in a cellular HCV replicon system based on Lohmann et al. (1999) Science 285:110-113, with the further modifications described by Krieger et al. (2001) Journal of Virology 75: 4614-4624, which is further exemplified in the examples section. This model, while not a complete infection model for HCV, is widely accepted as the most robust and efficient model of autonomous HCV RNA replication currently available. […] It will be appreciated that it is important to distinguish between compounds that specifically interfere with HCV functions from those that exert cytotoxic or cytostatic effects in the HCV replicon model, and as a consequence cause a decrease in HCV RNA or linked reporter enzyme concentration. Assays are known in the field for the evaluation of cellular cytotoxicity based for example on the activity of mitochondrial enzymes using fluorogenic redox dyes such as resazurin. Furthermore, cellular counter screens exist for the evaluation of non-selective inhibition of linked reporter gene activity, such as firefly luciferase. Appropriate cell types can be equipped by stable transfection with a luciferase reporter gene whose expression is dependent on a constitutively active gene promoter, and such cells can be used as a counter-screen to eliminate non-selective inhibitors.
The compounds of formula (I) were examined for activity in the inhibition of HCV RNA replication in a cellular assay. […] The cellular assay was based on a bicistronic expression construct, as described by Lohmann et al. (1999) Science vol. 285 pp. 110-113 with modifications described by Krieger et al. (2001) Journal of Virology 75: 4614-4624, in a multi-target screening strategy. In essence, the method was as follows.
The assay utilized the stably transfected cell line Huh-7 luc/neo (hereafter referred to as Huh-Luc). This cell line harbors an RNA encoding a bicistronic expression construct comprising the wild type NS3-NS5B regions of HCV type 1b translated from an Internal Ribosome Entry Site (IRES) from encephalomyocarditis virus (EMCV), preceded by a reporter portion (FfL-luciferase), and a selectable marker portion (neo^R, neomycine phosphotransferase). The construct is bordered by 5′ and 3′ NTRs (non-translated regions) from HCV type 1b. Continued culture of the replicon cells in the presence of G418 (neo^R) is dependent on the replication of the HCV RNA. The stably transfected replicon cells that express HCV RNA, which replicates autonomously and to high levels, encoding inter alia luciferase, are used for screening the antiviral compounds.
The replicon cells were plated in 384 well plates in the presence of the test and control compounds which were added in various concentrations. Following an incubation of three days, HCV replication was measured by assaying luciferase activity (using standard luciferase assay substrates and reagents and a Perkin Elmer ViewLux™ ultraHTS microplate imager). Replicon cells in the control cultures have high luciferase expression in the absence of any inhibitor. The inhibitory activity of the compound on luciferase activity was monitored on the Huh-Luc cells, enabling a dose-response curve for each test compound.
A general note: Replicon systems follow genome replication, usually without infectious particles.

The target of series [2] is HCV NS3/4A protease (Hepatitis C virus genotype 1a (isolate H77) (HCV), UniProt P27958). Put plainly: Inhibition assay (enzymatic assay) of full-length NS3 protease with NS4A cofactor. Type of series: biochemical. On the procedure:
[Landro, 1997 #Biochem 36 9340-9348]. […] The solutions were stored at −20° C. between measurements.
[Liu, 1999 Analytical Biochemistry 267 331-335].

Series [3] in a line: In vivo effects of ritonavir on the oral pharmacokinetics of Compound nr. 47 in rat. As to conditions: male and female Sprague-Dawley rats, single oral 10 mg/kg Compound nr. 47, boosting with 10 mg/kg ritonavir about 30 minutes before, plasma. How it is done:
Oral pharmacokinetics of Compound nr. 47 in male and female Sprague-Dawley rats after a single dose at 10 mg/kg, using a formulation in 50% PEG400/water and the influence of “boosting” with 10 mg/kg ritonavir were investigated.
Four male and four female Sprague-Dawley (SD)-rats (approx. body weight 200-250 g) were randomly divided into 2 groups of 2 males and females each (boosted and non-boosted) based on body weight. […] The animals were fasted shortly before the trial. Drinking water remained available ad libitum.
Rats from the non-boosted group received a single oral 10 mg/kg dose of Compound nr. 47, formulated as a 3 mg/ml 50% PEG400/water at pH 8. Rats from the boosted group received a single oral dose of ritonavir, about 30 minutes before single oral dosing with 10 mg/kg of Compound nr. 47. The drug formulations were administered by oral gavage.
From each rat, a 0.5 ml blood sample was collected at 0.5 h, 1 h, 2 h, 4 h and 8 h after dosing. Plasma concentrations were determined using HPLC-MS. Results are shown in the table 2 below, expressed as fold change in pharmacokinetic parameter of the boosted group as compared to the non-boosted group.

Chain of HCV NS3/4A protease (P27958 1027-1657): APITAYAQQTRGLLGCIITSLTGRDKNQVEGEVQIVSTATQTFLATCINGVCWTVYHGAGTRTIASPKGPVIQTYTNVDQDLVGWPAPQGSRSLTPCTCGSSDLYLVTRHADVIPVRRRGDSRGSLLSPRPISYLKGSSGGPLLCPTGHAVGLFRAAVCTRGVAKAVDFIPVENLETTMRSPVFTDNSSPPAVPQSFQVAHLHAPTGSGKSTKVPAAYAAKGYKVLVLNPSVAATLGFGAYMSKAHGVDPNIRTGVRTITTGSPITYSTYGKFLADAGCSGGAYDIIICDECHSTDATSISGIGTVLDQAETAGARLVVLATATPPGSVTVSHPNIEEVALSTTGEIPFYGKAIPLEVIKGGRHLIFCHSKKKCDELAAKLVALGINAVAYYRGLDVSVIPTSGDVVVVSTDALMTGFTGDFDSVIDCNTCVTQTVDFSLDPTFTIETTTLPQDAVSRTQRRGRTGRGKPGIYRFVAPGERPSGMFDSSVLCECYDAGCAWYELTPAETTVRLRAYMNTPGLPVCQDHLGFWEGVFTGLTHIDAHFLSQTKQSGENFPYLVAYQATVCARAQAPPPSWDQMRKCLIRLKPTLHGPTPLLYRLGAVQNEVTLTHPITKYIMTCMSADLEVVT

A word on the EC50: it is the concentration at which the effect is half-maximal. Usually Ki stands for a measure of affinity in units of concentration, obtained from inhibition or displacement. Low values mean higher affinity, high ones lower affinity. In turn, `COc1ccc2c(O[C@@H]3C[C@H]4C(=O)N[C@]5(C(=O)NS(=O)(=O)C6CC6)C[C@H]5/C=C\CCCCN(C)C(=O)[C@@H]4C3)cc(-c3nc(C(C)C)cs3)nc2c1C` [Compound 47, N-[17-[2-(4-isopropylthiazole-2-yl)-7-methoxy-8-methylquinolin-4-yloxy]-13-methyl-2,14-dioxo-3,13-diazatricyclo[13.3.0.0^4,6]octadec-7-ene-4-carbonyl](cyclopropyl)sulfonamide] came in with an EC50 in series [1] of 0.00618 µM. This compound also gave a Ki in series [2] of 0.5 nM. The “Cmax, fold change of the boosted group as compared to the non-boosted group” value in series [3] came out at 2.2 fold change.

Source of the values: patent US8741926B2, “Macrocyclic inhibitors of hepatitis C virus” (Tibotec Pharmaceuticals Ltd., priority 2005, dated 2014).
